One assay deals with LasA protease. As to the kind of experiment: LasA staphylolytic assay of culture supernatants. Format: cell-based, Pseudomonas aeruginosa. The settings on record: for LasA Activity: PAO1 grown with 40 μg/ml of sample; for decrease in LasA activity compared to control: crude extract printed 40 pg/ml, purified compounds 40 μg/ml. As for the experimental part: LasA belongs to the p-lytic endopeptidase class of proteases (Kessler, 1995) and plays a major role in host tissue degradation (Kharazmi, 1989; Morihara & Homma, 1985). LasA protease activity was determined by measuring the ability of culture supernatants to lyse boiled S. aureus cells (Kong et al., Int. J. Med. Microbiol., 296:133-139, 2006). There was a significant decrease in LasA activity compared to that of the control when strain PAO1 was grown in the presence of C. erectus crude extract at 1 mg/ml (91% decrease), and a lesser effect at […] (26% decrease) (Table 1). Purified vescalagin and castalagin affected significant reductions in LasA activity as well, with decreases of 73% and 80%, respectively (Table 1).

For a further assay, the system named is LasB elastase. The assay can be described thus: LasB elastolytic activity of culture supernatants (elastin Congo red). In kind it is cell-based, Pseudomonas aeruginosa. Particulars: for decrease in LasB activity compared to control: 40 ug/ml; for Elastase Activity: PAO1 grown with 40 μg/ml of sample. On the procedure:
LasB elastase is a zinc metalloprotease capable of affecting the host immune system and destroying biological tissue (Bever & Iglewski, 1988). The elastolytic activity of culture supernatants was determined using elastin Congo red (ECR; Sigma, St. Louis, Mo.) (Ohman et al., 1980). There was a significant decrease in LasB activity compared to that of the control when PAO1 was grown in the presence of C. erectus at 1 mg/ml (70% decrease) or 40 ug/ml (60% decrease) (Table 1). Purified vescalagin and castalagin also affected significant reductions in LasB activity, with decreases of 67% and 63%, respectively (Table 1).

Another assay concerns pyoverdin. As to the kind of experiment: Pyoverdin production (supernatant fluorescence). The settings on record: PAO1 grown with 40 μg/ml of sample. In kind it is cell-based, Pseudomonas aeruginosa. An excerpt: Pyoverdins function as siderophores essentially starving host tissues by competing with mammalian transferrin for iron. They also promote pathogenicity by stimulating bacterial growth (Cox & Adams, 1985), while auto-regulating themselves and the production of other toxins. Relative concentration of pyoverdin was based on fluorescence of the supernatant at an excitation wavelength of 405 nm and an emission wavelength of 465 nm (Gemini EM microplate reader). […] This is consistent with our previous data on C. erectus (Adonizio et al., 2008b).

A further assay concerns C12-AHL (OdDHL). The assay can be described thus: AHL production, C12-AHL. Format: cell-based, Pseudomonas aeruginosa. The settings on record: 40 μg/ml of sample. An excerpt: (§1) P. aeruginosa manufactures two main QS signaling molecules N-(3-oxododecanoyl)-L-homoserine lactone (OdDHL) and N-butanoyl-L-homoserine lactone (BHL) called autoinducers (Pearson et al., Proc. Natl. Acad. Sci. USA, 92:1490-1494, 1994). These molecules diffuse into the environment, and when they reach a putative threshold concentration, they activate the QS receptor genes.

The subject of another assay is C4-AHL (BHL). As to the kind of experiment: AHL production, C4-AHL. Format: cell-based, Pseudomonas aeruginosa. The settings on record: for AHL production C4-AHL: 40 μg/ml of sample.
Excerpt: as §1

For a further assay, the system named is lasI. The assay can be described thus: QS gene expression, promoter-lacZ fusion β-galactosidase assay, lasI. In kind it is cell-based, Pseudomonas aeruginosa. Particulars: 40 μg/ml of sample. On the procedure:
(§2) Samples were tested at the following concentrations: 1 mg/ml crude extract of C. erectus, 40 μg/ml crude extract, 40 μg/ml vescalagin, or 40 μg/ml castalagin. These additions were compared to a media-only control for the reduction of QS.

For a further assay, the system named is lasR. The settings on record: 40 μg/ml of sample. On the procedure: as §2
The subject of a further assay is rhlI. Particulars: 40 μg/ml of sample. As for the experimental part:
as §2

A further assay relates to rhlR. Particulars: 40 μg/ml of sample. As for the experimental part:
as §2

Assay [1] concerns QS genes (lasI, lasR, rhlI, rhlR). As to the kind of experiment: QS gene expression, summary over all tested QS genes. In kind it is cell-based, Pseudomonas aeruginosa. The settings on record: 40 μg/ml. As for the experimental part: as §2
In assay [2] the test system is P. aeruginosa PAO1-derived biomonitor strains pPCS 1001 and pPCS 1002. As to the kind of experiment: Anti-QS agar well bioassay with lacZ biomonitor strains. Format: cell-based, Pseudomonas aeruginosa. The settings on record: 10 μl aliquot per well. On the procedure: These strains harbor lacZ fusions to the QS gene promoter regions enabling blue/white selection for QS activity. […] Briefly, LB agar plates were seeded with a lawn of one of the biomonitor strains and allowed to dry for 1 hour. Small wells were then cut and aspirated from the agar, and 10 μl aliquots of each fraction were pipetted into each well. Wells were checked at 18 h and 24 h for zones of QS inhibition.
Each fraction was pipetted into a small well in an agar plate seeded with one of these biomonitor strains and the appropriate reagents for visualization of lacZ activity.

For another assay, the system named is LasB. The settings on record: P. putida grown in the presence of 30 μg/ml; cited from earlier work.
A further assay concerns P. putida. Particulars: concentrations up to 30 μg/ml; cited from earlier work.

SMILES strings stand for the structures.

Consider `O=C1OC[C@H]2OC(=O)c3cc(O)c(O)c(O)c3-c3c(O)c(O)c(O)c4c3C(=O)O[C@H]([C@H]3OC(=O)c5c-4c(O)c(O)c(O)c5[C@H]3O)[C@@H]2OC(=O)c2cc(O)c(O)c(O)c2-c2c1cc(O)c(O)c2O` [Castalagin, castalagin], for which, in the assay with LasA protease, the “LasA Activity” value is recorded as 0.048 ± 0.003 reduction in OD600/hour per μg total protein and the “decrease in LasA activity compared to control” value was 80%. Also, in the assay on LasB elastase, the “decrease in LasB activity compared to control” value was found to be 63% and the “Elastase Activity” value is reported as 52.7 ± 9.0 absorbance at OD495 per μg of protein × 1000. In the assay with pyoverdin, the Pyoverdin production is recorded as 4207 ± 150 fluorescence (405/465 nm) per μg of protein. Besides, the “AHL production C12-AHL” value in the assay with C12-AHL (OdDHL) turned out to be 1.389 ± 0.20 µM. For the same molecule, in the assay with C4-AHL (BHL), the “AHL production C4-AHL” value worked out at 0.703 ± 0.01 µM. The “Gene Expression (measured via β-galactosidase activity of the lacZ fusion products) las1” value in the assay on lasI worked out at 2465 ± 116 Milller Units. Also, the “Gene Expression (measured via β-galactosidase activity of the lacZ fusion products) lasR” value in the assay on lasR came out at 2160 ± 509 Milller Units. Also, in the assay with rhlI, the “Gene Expression (measured via β-galactosidase activity of the lacZ fusion products) rhll” value is 4542 ± 199 Milller Units. The “Gene Expression (measured via β-galactosidase activity of the lacZ fusion products) rhlR” value in the assay with rhlR was 4904 ± 348 Milller Units. The “effect on expression of QS genes” value in [1] is “reduced all QS gene levels save for rhlI”. In addition, the “anti-QS activity of HPLC fractions of Fraction A” value in [2] was “activity”.

As for `O=C1OCC2OC(=O)c3cc(O)c(O)c(O)c3-c3c(O)c(O)c(O)c4c3C(=O)OC(C2OC(=O)c2cc(O)c(O)c(O)c2-c2c1cc(O)c(O)c2O)C1OC(=O)c2c-4c(O)c(O)c(O)c2C1O` (centres unmarked) [Vescalagin, vescalagin], in the assay on LasA protease, the “LasA Activity” value was 0.066 ± 0.008 reduction in OD600/hour per μg total protein and the “decrease in LasA activity compared to control” value was 73%. Besides, in the assay on LasB elastase, the “decrease in LasB activity compared to control” value stood at 67% and the “Elastase Activity” value was 47.2 ± 6.8 absorbance at OD495 per μg of protein × 1000. Besides, the Pyoverdin production with pyoverdin was 4226 ± 138 fluorescence (405/465 nm) per μg of protein. The “AHL production C12-AHL” value in the assay on C12-AHL (OdDHL) stood at 1.227 ± 0.16 µM. Also, in the assay with C4-AHL (BHL), the “AHL production C4-AHL” value came to 0.489 ± 0.01 µM. The “reduction of BHL levels” value in the assay on C4-AHL (BHL) (purified compound, 40 μg/ml) was 21%. Also, the “Gene Expression (measured via β-galactosidase activity of the lacZ fusion products) las1” value with lasI turned out to be 2049 ± 93 Milller Units. In addition, the “Gene Expression (measured via β-galactosidase activity of the lacZ fusion products) lasR” value in the assay with lasR was 1703 ± 297 Milller Units. Further, the “Gene Expression (measured via β-galactosidase activity of the lacZ fusion products) rhll” value in the assay with rhlI worked out at 3514 ± 306 Milller Units. In the assay with rhlR, the “Gene Expression (measured via β-galactosidase activity of the lacZ fusion products) rhlR” value was found to be 4129 ± 287 Milller Units. Also, the “effect on expression of QS genes” value in assay [1] is reported as “reduced all QS gene levels including rhlI to a greater extent than castalagin”. Moreover, in assay [2], the “anti-QS activity of HPLC fractions of Fraction A” value is given as “activity”.

As for `O=c1oc2c(O)c(O)cc3c(=O)oc4c(O)c(O)cc1c4c23` [ellagic acid], the “decrease in LasB activity” value in the assay on LasB is 40%. Moreover, in the assay on P. putida, the effect on growth entry is recorded as “no effect”.

The record behind these values is patent US20130317094A1, “USE OF ELLAGITANNINS AS INHIBITORS OF BACTERIAL QUORUM SENSING” (priority 2008, published 2013).
